Article PMC10644720 (Frontiers in Pharmacology, 2023)

System: human washed platelets
Test: MDA, SOD and GPx activity in platelet lysate supernatant
Format: cell-based
Details: convulxin- and collagen-induced
Protocol: MDA, SOD, GPx, and NADPH oxidase activity were measured as previously described ([Krotz et al., 2002]; [Paul et al., 2019]; [Pan et al., 2021]). After incubation and activation, the reaction was stopped by adding 10 mM EGTA. The platelets were pelleted by centrifugation at 20,000 × g for 10 min at 4°C and resuspended in Tyrode’s buffer with 0.1% phosphatase and protease inhibitors (Cat No. 04906837001, Roche Applied Science, Penzberg, Germany; Cat No. P-8340, Sigma, St. Louis, MO, United States). The platelets were disrupted by passing them 10 times through a 29-gauge needle, followed by centrifugation at 2000 × g for 10 min at 4°C to separate the supernatant and precipitate. The detection of MDA, SOD, and GPx in the supernatant was performed according to the kit’s instructions for SOD (Cat No. BC0170, Solarbio Life Science, Beijing, China), MDA (Cat No. S0131S, Beyotime Institute of Biotechnology, Shanghai, China) and GPx (Cat No. S0056, Beyotime Institute of Biotechnology, Shanghai, China). In order to determine NADPH oxidase (NOX) activity, platelet lysate (12.5 μg) was incubated with 10 µM lucigenin and 0.5 mM NADPH at 37°C in the dark. The absorbance values were detected at 450 nm using a spectrophotometer Multiskan FC (ThermoFisher Scientific Inc., Waltham, MA, United States). Protein content was determined by the Bradford method.

SMILES: O=c1cc(-c2ccc(O)c(O)c2)oc2cc(O)cc(O)c12 [Luteolin]
- GPx activity: promoted
- MDA activity: inhibited
- SOD activity: promoted
